Data as given in publication PMC8696185, “Purification and Characterization of Plantaricin YKX and Assessment of Its Inhibitory Activity Against Alicyclobacillus spp” (Frontiers in Microbiology, 2021).
Bridges are numbered along the chain shown (N, C = ends). Where no end group is shown, it is not given here. [ ]: non-standard residue; d: D form. Dhb = C/C=C(\N)C(=O)O; Dha = C=C(N)C(=O)O

Experiments:
[1] = system: Aspergillus niger CICC 2124; experiment: Minimal inhibitory concentration (MIC); format: cell-based; settings: twofold serial dilution, 96-well plate, 24 h at 30°C, OD600; highest conc. not given in μg/mL (stock 1,024 IU/mL)
Protocol: (§1) The minimal inhibitory concentration (MIC) of plantaricin YKX toward indicator strains was measured according to the [Clinical and Laboratory Standards Institute (2012)]. Indicator strains in the mid-logarithmic growth phase were adjusted to the OD600 of 0.5 and diluted 100-fold with appropriate media. First, the plantaricin YKX solution (1,024 IU/mL) was twofold serially diluted with distilled water. Next, 100 μL each indicator strain suspension and aliquots of plantaricin YKX solution were incubated [1:1 (v/v) ratio] in a 96-well plate for 24 h at 45°C with Alicyclobacillus spp. as indicator strain and at 30°C for other indicator strains listed in Table 1. The efficacy of nisin (> 90% pure, J & K Chemical Technology) was also determined. As a control, distilled water was added to the indicator strains suspensions. Following incubation, the MICs were determined by measuring the OD600 using a microplate reader (SpectraMax 190, Molecular Devices, CA, United States).

[2] = system: Candida albicans CICC 1965; experiment: Minimal inhibitory concentration (MIC); format: cell-based; settings: twofold serial dilution, 96-well plate, 24 h at 30°C, OD600; highest conc. not given in μg/mL (stock 1,024 IU/mL)
Protocol: as §1

[3] = system: Enterobacter cloacae CICC 21539; experiment: Minimal inhibitory concentration (MIC); format: cell-based; settings: twofold serial dilution, 96-well plate, 24 h at 30°C, OD600; highest conc. not given in μg/mL (stock 1,024 IU/mL)
Protocol: as §1

[4] = system: Pseudomonas aeruginosa CICC 21636; experiment: Minimal inhibitory concentration (MIC); format: cell-based; settings: twofold serial dilution, 96-well plate, 24 h at 30°C, OD600; highest conc. not given in μg/mL (stock 1,024 IU/mL)
Protocol: as §1

[5] = system: Saccharomyces cerevisiae CICC 1002; experiment: Minimal inhibitory concentration (MIC); format: cell-based; settings: twofold serial dilution, 96-well plate, 24 h at 30°C, OD600; highest conc. not given in μg/mL (stock 1,024 IU/mL)
Protocol: as §1

[6] = system: Salmonella paratyphi β CICC 10437; experiment: Minimal inhibitory concentration (MIC); format: cell-based; settings: twofold serial dilution, 96-well plate, 24 h at 30°C, OD600; highest conc. not given in μg/mL (stock 1,024 IU/mL)
Protocol: as §1

[7] = system: A. acidoterrestris DSM3922 as indicator stain; experiment: Effect of enzymes on antibacterial activity (stability); format: in vitro ADME, Alicyclobacillus acidoterrestris; design: key to Antibacterial ability after Lipase, α-AMYLASE / Antibacterial ability after Trypsin, pepsin: Antimicrobial activity +: there is a clear inhibition zone.; Antimicrobial activity –: there is no inhibition zone; key to Antibacterial ability after Proteinase K, papain, α-chymotrypsin: −: Antimicrobial activity –: there is no inhibition zone; settings: enzyme 1.0 mg/mL, 37°C for 30 min, agar well diffusion
Protocol: (§2) The effect of temperature (60, 80, or 100°C) on the activity of purified plantaricin YKX was analyzed within a certain time (10, 20, or 30 min) ([An et al., 2017]). The long-term stability was investigated at 37°C for […] and at 4°C for 3 months ([Yue et al., 2013]). The impact of pH on plantaricin YKX was analyzed by adjusting pH to 2–10 with 1 M HCl and 1 M NaOH solutions and determining residual activities after maintaining at 37°C for 2 h ([Yue et al., 2013]). The effect of enzymes on the antibacterial activity of plantaricin YKX was determined following incubation with enzymes lipase [pH 7.0, 10 mM phosphate-buffered saline (PBS)], α-amylase (pH 7.0, 10 mM PBS), trypsin (pH 7.5, 10 mM PBS), proteinase K (pH 7.5, 50 mM Tris-HCl), papain (pH 7.5, 10 mM PBS), and pepsin (pH 3.0, 0.1 M HCl) at 37°C for 30 min with their optimal pH and a final concentration of 1.0 mg/mL. The enzymes were inactivated by heating at 100°C for 5 min, and the pH was then adjusted to pH 6.0 ([Yue et al., 2013]). Plantaricin YKX without any treatments was employed as a control. Agar well diffusion assay was utilized to determine the antibacterial activity ([Pei et al., 2020]).

[8] = system: E. coli CICC10302 as indicator stain; experiment: as above; format: in vitro ADME, Escherichia coli; design: key to Antibacterial ability after Lipase, α-AMYLASE / Antibacterial ability after Trypsin, pepsin: Antimicrobial activity +: there is a clear inhibition zone.; Antimicrobial activity –: there is no inhibition zone; key to Antibacterial ability after Proteinase K, papain, α-chymotrypsin: −: Antimicrobial activity –: there is no inhibition zone; settings: enzyme 1.0 mg/mL, 37°C for 30 min, agar well diffusion
Protocol: as §2

[9] = system: A. acidoterrestris DSM3922 as indicator stain; experiment: Heat, storage and pH stability, residual antibacterial activity; format: physicochemical, Alicyclobacillus acidoterrestris; design: key to Antibacterial ability after pH 2–7 / Antibacterial ability after 60, 80, and 100°C / Antibacterial ability after 37°C for 14 d / Antibacterial ability after 2 months at 4°C: Antimicrobial activity +: there is a clear inhibition zone.; Antimicrobial activity –: there is no inhibition zone; key to Antibacterial ability after pH 9–10: −: Antimicrobial activity –: there is no inhibition zone; settings: agar well diffusion
Protocol: as §2

[10] = system: E. coli CICC10302 as indicator stain; experiment: as above; format: physicochemical, Escherichia coli; design: key to Antibacterial ability after pH 2–7 / Antibacterial ability after 60, 80, and 100°C / Antibacterial ability after 37°C for 14 d / Antibacterial ability after 2 months at 4°C: Antimicrobial activity +: there is a clear inhibition zone.; Antimicrobial activity –: there is no inhibition zone; key to Antibacterial ability after pH 9–10: −: Antimicrobial activity –: there is no inhibition zone; settings: agar well diffusion
Protocol: as §2

[11] = Heat, storage and pH stability (indicator not given); format: physicochemical
Protocol: as §2

[12] = system: A. acidoterrestris ATCC 3922; experiment: Kill kinetics (time-killing curves); format: cell-based, Alicyclobacillus acidoterrestris; settings: for Time within which all cells were inactivated: at the MICs (1 × MIC)
Excerpt: FIGURE 3 Antibacterial activity of plantaricin YKX against A. acidoterrestris.

[13] = system: A. acidoterrestris DSM3922 cells; experiment: Flow cytometry, propidium iodide uptake (membrane integrity); format: cell-based, Alicyclobacillus acidoterrestris; settings: 2 × MIC, incubation for 30 min, 45°C, propidium iodide 10 μg/mL
Protocol: Log phase A. acidoterrestris DSM3922 cells were incubated with plantaricin YKX at 0.5×, 1×, or 2× MIC (control: cells treated with PBS) at 45°C for 15 min. Next, they were centrifuged, rinsed, and treated with propidium iodide (10 μg/mL) for 15 min at 45°C ([Gut et al., 2011]). After removing the unbound stain, the fluorescence intensities were analyzed by an AccuriC6 flow cytometer (BD Biosciences, MI, United States). Forty thousand events were acquired per sample and detected at excitation (488 nm) and emission wavelengths (525 nm).

[14] = system: A. acidoterrestris DSM3922 endospores; experiment: Endospore germination, microscopic counting; format: cell-based, Alicyclobacillus acidoterrestris; settings: 2 h post-germination treatment, untreated 43.6%
[15] = system: A. acidoterrestris DSM3922; experiment: Guaiacol production, HPLC; format: cell-based, Alicyclobacillus acidoterrestris; settings: AAM broth, 45°C, HPLC 275 nm, control 20.6 μg/L
Protocol: A. acidoterrestris DSM3922 was inoculated in AAM broth containing plantaricin YKX at 0.5 ×, 0.7 × or 0.9 × MIC (control without plantaricin YKX) and cultured at 45°C. Samples were tested for OD600 after 24 h. After the samples were centrifuged at 8,000 g at 4°C and passed through 0.22 μm filter membrane, the guaiacol content was determined with an analytical HPLC dual pump Shimadzu LC-20 AB system equipped with UltimateXB-C18 column (4.6 × 250 mm, particle size 5 μm, Kyoto, Japan) ([Lin et al., 2006]). The mobile phase was 30% (v/v) acetonitrile in 0.1% (v/v) formic acid. The column temperature was maintained at 40°C. The mobile phase flow rate was set at 1 mL/min. The detection wavelength was 275 nm.

[16] = system: luxS gene of A. acidoterrestris; experiment: RT-qPCR, transcription of luxS; format: cell-based, Alicyclobacillus acidoterrestris; settings: co-cultured at 0.5 × MIC, 0.7 × MIC, and 0.9 × MIC, overnight incubation
Protocol: To verify the effect of plantaricin YKX on the QS system, Real-Time Quantitative PCR (RT-qPCR) was used to detect the transcription level changes of the gene (luxS) encoding a QS signal (Al-2) synthesis enzyme (LuxS) in A. acidoterrestris. The mid-logarithmic phase cells of A. acidoterrestris were treated with plantaricin YKX at 0.5 ×, 0.7 ×, or 0.9 × MIC. After overnight incubation, RNA was extracted according to the Trizol method.
The reverse transcription reaction system (10 μL) contained: Total RNA 2 μL; dNTP 0.5 μL; Random primers 0.5 μL; and distilled water without RNAase 4 μL. All samples were maintained at 70°C for 5 min and then kept immediately in an ice bath. 5X reverse transcription buffer 2 μL, RNAase inhibitor 0.5 μL, and MMLV reverse transcription enzyme 0.5 μL were added immediately. Thus, the reverse transcription conditions were: 30°C for 10 min, 42°C for 1 h, 70°C for 15 min, and 4°C forever. After the reverse transcription reaction, the DNA templates were diluted 5 times and stored at −20°C until used.
PCR reaction included: upstream primer (10 μM) 0.2 μL, downstream primer (10 μM) 0.2 μL, 2 × Ultra SYBR Mixture 5 μL, ddH2O 3.6 μL, DNA templates 1 μL. The PCR reaction parameters were: 95°C for 10 min, 95°C for 15 s, 60°C for 1 min, 40 cycles. Primers (5′-[…]-3′; 5′-[…]-3′) were designed according to the gene sequence of luxS by the Primer 5.0 software.

[17] = system: Clostridium butyricum CICC 10350; settings: CICC 10350, 24 h
[18] = system: Alicyclobacillus spp.; settings: literature value; ref Yamazaki et al., 2000; cited from earlier work
Protocol: On the other hand, the MICs of plantaricin YKX and nisin inactivated all cells within 180 min.

[19] = optimal pH (proteinase K pH 7.5 Tris-HCl, papain pH 7.5 PBS)
[20] = pH 7.0, 10 mM PBS, enzyme inactivated 100°C 5 min, pH adjusted to 6.0
[21] = trypsin pH 7.5 10 mM PBS, pepsin pH 3.0 0.1 M HCl
[22] = pH adjusted with 1 M HCl / 1 M NaOH, 37°C for 2 h

## KYGNGLSRIFSALK [plantaricin YKX]
[1]
  MICs: > highest conc. tested
[2]
  MICs: > highest conc. tested
[3]
  MICs: > highest conc. tested
[4]
  MICs: > highest conc. tested
[5]
  MICs: > highest conc. tested
[6]
  MICs: > highest conc. tested
[7]; [19]
  Antibacterial ability after Proteinase K, papain, α-chymotrypsin: –
[7]; [20]
  Antibacterial ability after Lipase, α-AMYLASE: +
[7]; [21]
  Antibacterial ability after Trypsin, pepsin: +
[8]; [19]
  Antibacterial ability after Proteinase K, papain, α-chymotrypsin: –
[8]; [20]
  Antibacterial ability after Lipase, α-AMYLASE: +
[8]; [21]
  Antibacterial ability after Trypsin, pepsin: +
[9]; heated for 10, 20, or 30 min
  Antibacterial ability after 60, 80, and 100°C: +
[9]; long-term storage
  Antibacterial ability after 2 months at 4°C: +
  Antibacterial ability after 37°C for 14 d: +
[9]; [22]
  Antibacterial ability after pH 2–7: +
  Antibacterial ability after pH 9–10: –
[10]; heated for 10, 20, or 30 min
  Antibacterial ability after 60, 80, and 100°C: +
[10]; long-term storage
  Antibacterial ability after 2 months at 4°C: +
  Antibacterial ability after 37°C for 14 d: +
[10]; [22]
  Antibacterial ability after pH 2–7: +
  Antibacterial ability after pH 9–10: –
[11]; 3 months at 4°C, agar well diffusion
  Antibacterial activity after storage: did not alter its antibacterial activity
[11]; 37°C for 2 h at adjusted pH, residual activity by agar well diffusion
  pH at which the activity was lost: 9.0
[11]; 37°C for up to 14 days, agar well diffusion
  Antibacterial activity after storage: did not alter its antibacterial activity
[11]; as stated in the abstract
  pH range in which active (abstract): 3–8
[11]; heating at 60, 80, or 100°C (10, 20, or 30 min), agar well diffusion
  Heat stability, activity after heating: retaining activity
[12]; 2 MIC
  Time within which the number of cells was substantially decreased: ≤ 30 min
[12]
  Time within which all cells were inactivated: ≤ 180 min
[13]
  Proportion of PI-stained cells: 91.6%
[14]; 0.5 × MIC
  Germination rate of spores: 55.4%
[14]; 0.7 × MIC
  Germination rate of spores: 70.5%
[14]; 0.9 × MIC
  Germination rate of spores: 81.7%
[15]; 0.5 × MIC
  Production of guaiacol: 16.8 µg/L
[15]; 0.7 × MIC
  Production of guaiacol: 10.1 µg/L
[15]; 0.9 × MIC
  Production of guaiacol: 8.9 µg/L
[16]
  Expression of the luxS gene: increased significantly
[17]
  MICs: 32 µg/mL

## nisin: typical class I (lanthionine-based) bacteriocin, > 90% pure, J & K Chemical Technology (I[Dhb]SI[Dha]LCTPGCKTGALMGCNMKTATCHCSIHV[Dha]K; bridge 23-26, 13-19, 8-11, 25-28, 3-7; not fully specified (residues 3, 8, 13, 23, 25, bridges); UniProt P13068 24-57, looked up) [reference compound]
[12]
  Time within which all cells were inactivated: ≤ 180 min
[16]
  Expression of the luxS gene: did not show a similar function
[18]
  MIC: 16 to 32 µg/mL
